From patent US7556807B2, “Signal peptides, nucleic acid molecules and methods for treatment of caries” (priority 2001, dated 2009) come the findings set out here.

Entries after “also recorded” stand apart in the source; their conditions may differ. No end group written: not given here.

In assay [1] the test system is S. mutans wild-type UA159. Description: S. mutans biofilms formed on polystyrene microtiter plates (b), SDM-glucose, safranin (first study). It counts as cell-based, Streptococcus mutans. The following applies: 5 μg/ml of peptide analog; ↓ = reduced biomass compared to biofilm grown in presence of wild-type CSP. The method, then:
Biofilms were developed in 96-well polystyrene microtiter plates. […] Wells without cells were used as blank controls. […] After the incubation, the planktonic cells were carefully removed and the plates were air dried overnight. The plates were then stained with 0.01% (wt/vol) safranin for 10 min, rinsed with sterile distilled water and air dried. Biofilms were quantified by measuring the absorbance of stained biofilms at 490 nm with a microplate reader (model 3550; Bio-Rad Laboratories, Richmond, Calif.).

The test system of assay [2] is S. mutans wild-type UA159. Briefly: S. mutans acid resistance assay (growth in THYE at pH 7.5 and pH 5.5). The assay is classed as cell-based, Streptococcus mutans. The following applies: 5 μg/ml of peptide analog; for Growth (pH 7.5): THYE pH 7.5; for Acid resistance (pH 5.5): growth in THYE pH 5.5. The method, then:
The effect of peptides on acid tolerance was evaluated by assessment of growth in THYE at pH 7.5 and pH 5.5. Overnight S. mutans wild-type UA159 cells were diluted (1:20) with prewarmed THYE broth and incubated at 37° C. in air with 5% CO2 until an OD600 of approximately 0.4 was reached. A 20-fold dilution was made into 400 μl of either THYE pH 7.5 or THYE pH 5.5 broth containing different concentrations (0, 0.1, 0.5, 2, and 5 μg per ml) of peptide analogs and added in the individual wells of a 100-well Bioscreen C plate in triplicate. Wells without cells were used as blank controls. A Bioscreen microbiology reader (Labsystems, Helsinki, Finland) was employed to continuously grow cells and measure cell growth for 16 h at 37° C. Measurements were taken every 20 min with shaking to prevent cell aggregation.

The test system of assay [3] is S. mutans wild-type UA159. Briefly: S. mutans competence assay (genetic transformation with plasmid pDL289). The assay is classed as cell-based, Streptococcus mutans. To be noted: 5 μg/ml of peptide analog; for Transformation efficiency (vs no CSP): compared with natural transformation without exogenous CSP, 'no effect' = no significant difference by comparison with CSP; for Transformation efficiency (vs 5 μg CSP): compared with wild-type S. mutans CSP (5 μg CSP). Here is the method: To determine if the peptide analogs had any impact on the development of genetic competence, S. mutans UA159 wild-type cells were assayed for genetic transformation. Overnight cultures of S. mutans UA159 were diluted (1:20) with prewarmed THYE broth and incubated at 37° C. in air with 5% CO2 until an optical density (OD) of approximately 0.1 at 600 nm was reached. The culture was then divided into six aliquots containing 1 μg/ml of plasmid pDL289 and different concentrations (0, 0.1, 0.5, 2, and 5 μg per ml) of peptide analogs. The cultures were incubated at 37° C. in air with 5% CO2 for 2.5 h, gently sonicated for 10 s to disperse the streptococcal chains, and spread on THYE plates containing kanamycin. Plates were incubated at 37° C. in air with 5% CO2 for 48 h. Total recipient cells were counted by spreading serial dilutions on THYE agar plates without antibiotic. Transformation efficiency was expressed as the percentage of kanamycin resistant transformants over the total number of recipient cells.

In a further assay the test system is S. sobrinus. Briefly: Growth and biofilm formation on polystyrene microtiter plates, crystal violet. It counts as cell-based, Streptococcus sobrinus. The following applies: for Biofilm formation: additional studies. Here is the method: (§1) They were grown in Todd-Hewitt broth containing 0.3% yeast extract (THYE) at pH 5.5 or 7.5. […] In liquid media, cultures were incubated in closed screw-cap tubes without agitation at 37° C. in an anaerobic chamber (5% CO2).
(§2) Wells without cells were used as blank controls.

The subject of a further assay is S. gordonii. The assay is described as above. The assay is classed as cell-based, Streptococcus gordonii. The following applies: for Biofilm formation: additional studies. The method, then: as §1, §2
The subject of another assay is S. sanguis. The assay is described as above. The following applies: for Biofilm formation: additional studies. The assay is classed as cell-based, Streptococcus sanguis. Here is the method:
as §1, §2

The test system of the next assay is S. pneumoniae. The assay is described as above. To be noted: for Biofilm formation: additional studies. It counts as cell-based, Streptococcus pneumoniae. The method, then:
as §1, §2

The test system of the next assay is S. oralis. The description is as above. It counts as cell-based, Streptococcus oralis. The following applies: for Biofilm formation: additional studies. The method, then:
as §1, §2

A further assay relates to S. mitis. The assay is described as above. The assay is classed as cell-based, Streptococcus mitis. To be noted: for Biofilm formation: additional studies. Here is the method:
as §1, §2

Assay [4] has as its system mixed culture of the above Streptococcus spp. Description: Mixed culture biofilm formation. The assay is classed as cell-based. The following applies: data not shown.
From the text: as §2

With “B1: S. mutans CSP analog, 2nd residue removed from N′ (SGSLSTFFRLFNRSFTQALK; F1 peptide analog)”, the “Bioflim formation (SDM-glucose)” value in [1] is “no effect”. In assay [2], the “Growth (pH 7.5)” value was “↓growth” and the “Acid resistance (pH 5.5)” value is reported as “growth”. Also, in assay [3], the “Transformation efficiency (vs no CSP)” value is “no effect” and the “Transformation efficiency (vs 5 μg CSP)” value is “no significant effect”.
Regarding “C1: S. mutans CSP analog, 3rd residue removed from N′ (SGSLSTFFRLFNRSFTQAGK; G1 peptide analog)”, the “Bioflim formation (SDM-glucose)” value in [1] is on record as “no effect”. In assay [2], the “Growth (pH 7.5)” value is on record as “↓growth” and the “Acid resistance (pH 5.5)” value was “growth”. In assay [3], the “Transformation efficiency (vs no CSP)” value was “no effect” and the “Transformation efficiency (vs 5 μg CSP)” value was “no significant effect”.
Consider “F1: S. mutans CSP analog, 2nd residue removed from C′ (SGSLSTFFVLFNRSFTQALGK; B2 peptide analog)”, for which the Biofilm formation entry with S. sobrinus, in the assay on S. gordonii, in the assay on S. sanguis, with S. pneumoniae, in the assay with S. oralis and in the assay on S. mitis was “significantly reduce biofilm formation” throughout. In addition, the “Growth (pH 7.5)” value in assay [2] is given as “diminution of cell growth”. Besides, the “Acid resistance (pH 5.5)” value in [2] is recorded as “diminution of cell growth”.
For the substance SGSLSTFFRLFNASFTQALGK [E2], the Growth entry in the assay on S. sobrinus (5 μg/ml), with S. gordonii (5 μg/ml), with S. sanguis (5 μg/ml), with S. pneumoniae (5 μg/ml), in the assay on S. oralis (5 μg/ml) and in the assay with S. mitis (5 μg/ml) was “inhibitory effects” each time. In addition, the Biofilm formation entry in the assay on S. sobrinus, in the assay on S. gordonii, in the assay on S. sanguis, in the assay on S. pneumoniae, in the assay with S. oralis and in the assay on S. mitis was “significantly reduce biofilm formation” throughout. Further, the “Mixed culture biofilm formation” value in assay [4] is on record as “significant inhibitory effect”. In [2], the “Growth (pH 7.5)” value is listed as “no effect; also recorded: without affecting the cell growth”. Also, the “Acid resistance (pH 5.5)” value in [2] is recorded as “significant decrease in cell growth; also recorded: inhibited cell growth”.
Take SGTLSTFFRLFNRSFTQALGK [B3]: the Biofilm formation entry in the assay with S. sobrinus, with S. gordonii, in the assay with S. sanguis, in the assay with S. pneumoniae, with S. oralis and with S. mitis was “significantly reduce biofilm formation” each time. Further, in assay [2], the “Growth (pH 7.5)” value was “no effect”. In addition, the “Acid resistance (pH 5.5)” value in assay [2] is “significant decrease in cell growth”.
In the case of “A2: S. mutans CSP analog, 5th residue removed from C′ (SGSLSTFFRLFNASFTQALGK; E2 peptide analog)”, in assay [1], the “Bioflim formation (SDM-glucose)” value is “no effect”. Moreover, in [2], the “Growth (pH 7.5)” value is given as “no effect” and the “Acid resistance (pH 5.5)” value is “significant decrease in cell growth”.
With “SGSLSTFFVLFNRSFTQALGK (SGSLSTFFRLFNRSFTQALGV; F2 peptide analog) [B2, S. mutans CSP analog, substitution of 1st R residue with V]”, the “Bioflim formation (SDM-glucose)” value in [1] was “no effect”. In [2], the “Growth (pH 7.5)” value was “no effect” and the “Acid resistance (pH 5.5)” value is “significant decrease in cell growth”.
“SGSLSTFFRLFNRSFTQALGV [F2, S. mutans CSP analog, substitution of K residue with V]”: in assay [2], the “Growth (pH 7.5)” value is “diminution of cell growth” and the “Acid resistance (pH 5.5)” value is given as “diminution of cell growth”.
In the case of “IH-1: S. mutans CSP analog, 1st residue removed from N′ (SGSSTFFRLFNRSFTQALGK; D1 peptide analog)”, in assay [1], the “Bioflim formation (SDM-glucose)” value was “no effect”. In assay [2], the “Growth (pH 7.5)” value is given as “↓growth” and the “Acid resistance (pH 5.5)” value was “growth”. Also, in assay [3], the “Transformation efficiency (vs no CSP)” value was “no effect^a” and the “Transformation efficiency (vs 5 μg CSP)” value was “no significant effect”.
Turning to “SGSLSTFFRLFNVSFTQALGK [D2, S. mutans CSP analog, substitution of 2nd R residue with V]”, the “Bioflim formation (SDM-glucose)” value in assay [1] is “no effect”. Besides, in assay [2], the “Growth (pH 7.5)” value is “no effect” and the “Acid resistance (pH 5.5)” value is given as “significant decrease in cell growth”.
Regarding “SGSLSTFFRLFNRSFTQALGA [G2, S. mutans CSP analog, substitution of K residue with A]”, in assay [2], the “Growth (pH 7.5)” value is reported as “diminution of cell growth” and the “Acid resistance (pH 5.5)” value is “diminution of cell growth”.
As to “IH-2: S. mutans CSP analog, 1st residue removed from C′ (SGSLTFFRLFNRSFTQALGK; E1 peptide analog)”, in assay [1], the “Bioflim formation (SDM-glucose)” value is recorded as “no effect”. Further, in assay [2], the “Growth (pH 7.5)” value was “↓growth” and the “Acid resistance (pH 5.5)” value is given as “growth”. Also, in [3], the “Transformation efficiency (vs no CSP)” value is listed as “no effect” and the “Transformation efficiency (vs 5 μg CSP)” value is recorded as “no significant effect”.
For the substance “SGSLSTFFALFNRSFTQALGK (SGSLSTFFRLFNRSFTQALGA; G2 peptide analog) [C2, S. mutans CSP analog, substitution of 1st R residue with A]”, the Biofilm formation result in the assay with S. sobrinus, with S. gordonii, with S. sanguis, with S. pneumoniae, in the assay with S. oralis and with S. mitis was “significantly reduce biofilm formation” in each case. For the same substance, the “Bioflim formation (SDM-glucose)” value in [1] is “no effect”. The “Growth (pH 7.5)” value in assay [2] is on record as “no effect”. The “Acid resistance (pH 5.5)” value in assay [2] is “significant decrease in cell growth”.
On to “G1: S. mutans CSP analog, 3rd residue removed from C′ (SGSLSTFFALFNRSFTQALGK; C2 peptide analog)”, for which, in assay [2], the “Growth (pH 7.5)” value was “↓growth” and the “Acid resistance (pH 5.5)” value was “growth”.
For the substance “D1: S. mutans CSP analog, 4th residue removed from N′ (SGSLSTFFRLFNRSFTQLGK; H1 peptide analog)”, in [1], the “Bioflim formation (SDM-glucose)” value was “no effect”. In assay [2], the “Growth (pH 7.5)” value is “↓growth” and the “Acid resistance (pH 5.5)” value is given as “growth”.
Turning to “E1: S. mutans CSP analog, 5th residue removed from N′ (SGSLSTFFRLFNRSFTALGK; A2 peptide analog)”, the “Bioflim formation (SDM-glucose)” value in [1] is given as “no effect”. For the same substance, in assay [2], the “Growth (pH 7.5)” value is reported as “↓growth” and the “Acid resistance (pH 5.5)” value is recorded as “growth”.
